The values below come from ChEMBL document CHEMBL1201862, “PubChem BioAssay data set” (2004).

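Five concentrations, 48 hours, 96-well plates. At the GI50, growth is halved.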 Calls of active or inactive are those of the source. Cut-off read from the data, not from the text of the source: active = GI50 up to about 1.1 µM and inactive = higher. A value given as a limit tells only on which side of the number the result lay.

Holding throughout (assay): growth of human tumour cells (NCI), 48 h
Experiment [1] has as its system 786-0.
The subject of experiment [2] is A498.
Experiment [3] relates to BT-549.
Experiment [4] deals with CAKI-1.
Experiment [5] concerns CCRF-CEM.
Experiment [6] has as its system HCC 2998.
Experiment [7] has as its system HCT-15.
The subject of experiment [8] is HT-29.
The test system of experiment [9] is Hs-578T.
Experiment [10] relates to MOLT-4.
In experiment [11] the test system is RPMI-8226.
For experiment [12], the system named is RXF 393.
The test system of experiment [13] is SF-295.
Experiment [14] concerns SF-539.
The subject of experiment [15] is SK-OV-3.
Experiment [16] concerns SNB-19.
In experiment [17] the test system is SNB-75.
In experiment [18] the test system is TK-10.
Experiment [19] deals with U-251.
In experiment [20] the test system is UO-31.

As to `COc1ccc2c(c1)CCN=C2c1ccccc1CCCCl`, the GI50 in experiment [1] was 38.4 µM (inactive); in experiment [2] it was 49.1 µM (inactive); in experiment [3], 38.5 µM (inactive); in experiment [4] it was 24.4 µM (inactive); in experiment [5], 41.4 µM (inactive); in experiment [6], 6.25 µM (inactive). For the same compound, the GI50 in experiment [7] is 23.6 µM; in experiment [8], 13.6 µM (inactive); in experiment [9], 16.5 µM (inactive); in [10] it was 13 µM (inactive); in experiment [11], 1.84 µM (inactive); in experiment [12] it was 22.6 µM (inactive). In addition, the GI50 is 20.5 µM (inactive) in [13]; 18.6 µM (inactive) in experiment [14]; 31.5 µM (inactive) in [15]; 7.67 µM (inactive) in experiment [16]; 17.3 µM (inactive) in [17]; 94 µM (inactive) in experiment [18]. Besides, the GI50 in experiment [19] is 71.6 µM (inactive); in [20] it was 10 µM (inactive).
For `CCC(=O)c1cc(C(=O)C(=S)SC)cc(C(=O)C(=S)SC)c1`, the GI50 in [1] was > 85.7 µM (inactive); in experiment [2], > 100 µM (inactive); in experiment [3], > 100 µM (inactive); in experiment [4], > 100 µM (inactive); in experiment [5], 3.05 µM (inactive); in [6], > 100 µM (inactive). In addition, the GI50 in [7] was over 60 µM; in experiment [8] it was > 100 µM (inactive); in [9] it was > 49.7 µM (inactive); in experiment [10] it was 12 µM (inactive); in experiment [11] it was 99.3 µM (inactive); in [12], > 100 µM (inactive). The GI50 in experiment [13], in experiment [14], in experiment [15], in experiment [16], in [17] and in experiment [18] was > 100 µM (inactive) in each case. In addition, the GI50 in experiment [19] was > 69.3 µM (inactive); in [20], 48.4 µM (inactive).
Regarding `O=C(c1ccc(Cl)cc1)C1OC12C(=O)Nc1ccccc12` (stereo not given), the GI50 in experiment [1] is 11.7 µM (inactive); in [2] it was 19.7 µM (inactive); in experiment [3] it was 6.93 µM (inactive); in experiment [4], 6.71 µM (inactive); in [5] it was 0.388 µM (active); in experiment [6] it was 19.9 µM (inactive). Besides, the GI50 in experiment [7] was 4.74 µM; in experiment [8], 8.51 µM (inactive); in [9], 16.5 µM (inactive); in [10], 0.569 µM (active); in [11], 2.4 µM (inactive); in experiment [12], 15.4 µM (inactive). The GI50 in [13] was 18 µM (inactive); in [14], 16 µM (inactive); in experiment [15], 25.1 µM (inactive); in experiment [16], 40.9 µM (inactive); in [17] it was 17.1 µM (inactive); in experiment [18], 20.7 µM (inactive). Further, the GI50 is 17.3 µM (inactive) in experiment [19] and 15.8 µM (inactive) in experiment [20].
As to `COc1ccc(C[C@@H](CO)NC2=C(C#N)CCC2)cc1`, the GI50 in experiment [1] is 64.1 µM (inactive); in experiment [2], 31.9 µM (inactive); in experiment [3] it was 30.4 µM (inactive); in [4] it was 43 µM (inactive); in experiment [5] it was 42.6 µM (inactive); in experiment [6] it was 19.6 µM (inactive). Moreover, the GI50 was 40.4 µM in experiment [7]; 33.4 µM (inactive) in [8]; 20 µM (inactive) in [9]; 38.7 µM (inactive) in [10]; 18.1 µM (inactive) in experiment [11]; 48.6 µM (inactive) in experiment [12]. Also, the GI50 was 29.7 µM (inactive) in experiment [13]; 26.3 µM (inactive) in experiment [14]; 49.1 µM (inactive) in experiment [15]; > 100 µM (inactive) in experiment [16]; 22.2 µM (inactive) in experiment [17]; 63.8 µM (inactive) in experiment [18]. Further, the figures for the GI50 in [19] and in experiment [20] were > 100 µM (inactive) and 46 µM (inactive), respectively.
For `Cc1cc(N(CCC#N)CCC#N)ccc1C(=N/NC(=O)c1cc(Cl)ccc1O)/N=N/c1cccc([N+](=O)[O-])c1`, the GI50 in [1] is 29 µM (inactive); in experiment [2] it was 15.5 µM (inactive); in [3] it was 22.4 µM (inactive); in experiment [4] it was 27 µM (inactive); in experiment [5], 5.68 µM (inactive); in [6] it was 28.8 µM (inactive). Further, the GI50 is 25.5 µM in experiment [7]; 26.7 µM (inactive) in experiment [8]; 38.9 µM (inactive) in experiment [9]; 6.03 µM (inactive) in experiment [10]; 12.4 µM (inactive) in [11]; 22.2 µM (inactive) in [12]. The GI50 is 35.9 µM (inactive) in experiment [13]; 44.5 µM (inactive) in experiment [14]; 34 µM (inactive) in experiment [15]; 26.5 µM (inactive) in experiment [16]; 27.5 µM (inactive) in [17]; 27.2 µM (inactive) in [18]. Moreover, the GI50 in [19] was 35.9 µM (inactive); in [20] it was 17.6 µM (inactive).
`O=[N+]([O-])c1ccc2c(c1)C1=NN(c3ccccc3)C(c3ccccc3Br)C1CCC2` (stereo not given): the GI50 in experiment [1] is > 50 µM (inactive); in [2], 12.1 µM (inactive); in experiment [3], 13.2 µM (inactive); in [4], 23.4 µM (inactive); in experiment [5], 2.19 µM (inactive); in [6], 21.9 µM (inactive). The GI50 in experiment [7] is 13.3 µM; in [8], 16.1 µM (inactive); in [9], 48.1 µM (inactive); in experiment [10], 6.97 µM (inactive); in experiment [11], 6.85 µM (inactive); in [12], 14.4 µM (inactive). For the same compound, the GI50 is 17.9 µM (inactive) in experiment [13]; 19.1 µM (inactive) in experiment [14]; > 50 µM (inactive) in experiment [15]; 25.7 µM (inactive) in experiment [16]; 42.8 µM (inactive) in [17]; 38.2 µM (inactive) in experiment [18]. Also, the figures for the GI50 in experiment [19] and in experiment [20] were 25.3 µM (inactive) and 20.6 µM (inactive), respectively.
For `COc1ccc2c(=O)c3c([nH]c2c1)OCC3=O`, the GI50 in experiment [1], in experiment [2], in [3], in experiment [4], in [5] and in [6] was > 100 µM (inactive) each time. Besides, the GI50 in [7] is over 100 µM; in experiment [8], > 100 µM (inactive); in experiment [9], > 100 µM (inactive); in experiment [10], > 100 µM (inactive); in experiment [11], > 100 µM (inactive); in experiment [12] it was > 100 µM (inactive). Besides, the GI50 in experiment [13], in experiment [14], in experiment [15], in experiment [16], in [17] and in experiment [18] was > 100 µM (inactive) throughout. In addition, the GI50 in experiment [19] and in experiment [20] was > 100 µM (inactive) throughout.
On to `CCCCN(Cc1ccccc1)/C(=N/C#N)N(Cc1ccccc1)Cc1ccccc1`, for which the GI50 in experiment [1] is 17.1 µM (inactive); in experiment [2], 36.6 µM (inactive); in [3], 19.2 µM (inactive); in experiment [4] it was 10 µM (inactive); in experiment [5], 26.7 µM (inactive); in [6] it was 26.5 µM (inactive). In addition, the GI50 is 14.4 µM in experiment [7]; 10.9 µM (inactive) in [8]; 23.4 µM (inactive) in [9]; > 100 µM (inactive) in [10]; 12.6 µM (inactive) in [11]; 17.3 µM (inactive) in experiment [12]. The GI50 in [13] was 9.95 µM (inactive); in experiment [14], 21.9 µM (inactive); in experiment [15] it was 30.2 µM (inactive); in experiment [16] it was 20.7 µM (inactive); in experiment [17], 21.1 µM (inactive); in experiment [18], 38.1 µM (inactive). For the same compound, the GI50 was 17.1 µM (inactive) in [19] and 14.6 µM (inactive) in experiment [20].
For `COc1ccccc1NC(=S)N/N=C(/c1ccccc1)c1ccccn1`, the GI50 in experiment [1] is 0.103 µM (active); in experiment [2], 1.38 µM (inactive); in [3] it was 2.15 µM (inactive); in experiment [4], < 0.0421 µM (active); in [5] it was 0.0316 µM (active); in [6], 5.97 µM (inactive). The GI50 in experiment [7] is 0.045 µM; in experiment [8], 0.0101 µM (active); in experiment [9] it was 7.05 µM (inactive); in experiment [10] it was < 0.0182 µM (active); in [11], 0.0299 µM (active); in [12], 1.07 µM (active). For the same compound, the GI50 is 0.261 µM (active) in [13]; 1.37 µM (inactive) in experiment [14]; 0.0771 µM (active) in experiment [15]; 2.6 µM (inactive) in experiment [16]; 0.998 µM (active) in experiment [17]; 0.125 µM (active) in experiment [18]. Besides, the GI50 in experiment [19] is 0.0635 µM (active); in experiment [20], 0.2 µM (active).
Consider `CN(C)c1ccc(/C=C(\NC(=O)c2ccccc2)C2=NC(CCC(=O)O)C(=O)O2)cc1` (stereo not given), for which the GI50 in experiment [1] is > 50 µM (inactive); in [2], > 50 µM (inactive); in [3] it was > 50 µM (inactive); in experiment [4], > 50 µM (inactive); in experiment [5] it was > 43.9 µM (inactive); in experiment [6], > 50 µM (inactive). Besides, the GI50 was over 50 µM in experiment [7]; > 50 µM (inactive) in experiment [8]; > 50 µM (inactive) in [9]; > 50 µM (inactive) in experiment [10]; 35.9 µM (inactive) in experiment [11]; > 50 µM (inactive) in [12]. Besides, the GI50 in [13] was > 50 µM (inactive); in experiment [14] it was > 35.2 µM (inactive); in [15], > 50 µM (inactive); in experiment [16], 33.2 µM (inactive); in experiment [17], > 50 µM (inactive); in [18], > 50 µM (inactive). The results for the GI50 in experiment [19] and in experiment [20] were > 47.2 µM (inactive) and > 50 µM (inactive), respectively.
